Results on twelve compounds are retold here after patent publication US20130089912A1, “METHODS AND COMPOSITIONS FOR THE STABILIZATION OF BIOLOGIC MATERIAL” (priority 2011, published 2013).

Data set [1] is described as follows: Differential scanning calorimetry of DPPC unilamellar vesicles mixed with test compound (screening assay for toxic membrane interactions).
For data set [2] the following is noted: choline salt of the named anion.
The subject of data set [3] is mouse macrophage cell line. The conditions noted are these: cited from earlier work; for Log EC50: logarithm of EC50 in uM, matches the EC50 values of Weaver et al. (2010).
Where [4] appears, read: choline salt 10 mM, DPPC vesicle assay, Table 2.
The mark [5] stands for this setting: 10 mM compound, DPPC liposomes, HEPES buffer pH 7.40.
The mark [6] stands for this setting: 10 mM compound, DPPC liposomes, HEPES buffer pH 7.40, scan 20 to 50° C., equilibrium scans.
The mark [7] stands for this setting: 10 mM compound, compared to DPPC control scan from same LUV batch solution.
The mark [8] stands for this setting: cellular toxicity, values reproduced from Weaver et al. (2010).
[9] abbreviates: 10 mM compound, DPPC liposomes, HEPES buffer pH 7.40, NR = not resolvable.
Where [10] appears, read: 10 mM compound, initial heating scan.

Several values for one entry are separate records, joined by “and”; a condition that tells them apart may be missing. Identical values can stand only once. Counter-ions that a name gives are not always drawn. Like-named read-outs stand apart in the source and are kept apart here.

Take choline tartarate: in data set [1], the “Δ Tm” value is given as “+0.35 C”. Moreover, in data set [1] (setting [4]), the “ΔΔ H” value is listed as “+121.9 cal/mole/ C” and the “ΔΔ T(1/2)” value is −0.03 C.

As to “2-hydroxyethyl(trimethyl)azanium bis(2,4,4-trimethylpentyl)phosphinate [CTMP]”, in data set [1] (10 mM compound), the “Decrease of peak width (ΔΔT1/2) compared to control lipid vesicles” value came out at 17%; the “Effect on DPPC main gel-liquid crystal phase transition (in words)” value (“Effect” for short) is “large decrease in Tm and enthalpy, and increased cooperativity”; the “Reduction of main transition Tm compared to DPPC alone” value was determined as 21%. In data set [1] (setting [5]), the “Main Transition ΔH” value turned out to be 14.98 kJ/mol and the “Main Transition ΔT(1/2)” value was 1.48 °C. In data set [1] (setting [6]), the “Main Transition Tm” value was 32.6 °C and 33 °C and 32.58 °C. Besides, in data set [1] (setting [7]), the “Change in Main Transition ΔTm” value is −21%, the “Change in Main Transition ΔΔH” value is on record as −52%, the “Change in Main Transition ΔΔT(1/2)” value is reported as −17% and the “Change in Pretransition ΔH” value is reported as −100%. Moreover, in data set [1] (10 mM compound, compared to control lipid vesicles), the “Reduction of transition enthalpy (in words)” value is recorded as “half”. Besides, the “Pretransition peak of DPPC (in words)” value in data set [1] (10 mM compound, peak normally at approximately 34° C.) is “below resolvable limits”. Further, in data set [1] (setting [4]), the “Δ Tm” value was −8.08 C, the “ΔΔ H” value is given as −2011 cal/mole/ C and the “ΔΔ T(1/2)” value is on record as −0.37 C. For the same compound, the “Log Pow” value in data set [2] worked out at 3.60. For the same compound, the EC50 in data set [3] (setting [8]) is < 0.25 mM. The “Log EC50” value in data set [3] is recorded as 2.39 uM.

As to `CC(C)Cc1ccc(C(C)C(=O)[O-])cc1.[Na+]` (stereo not drawn) [Ibuprofen sodium salt, ibuprofen sodium salt, reference compound], in data set [1] (setting [5]), the “Main Transition ΔH” value was 30.22 kJ/mol and the “Main Transition ΔT(1/2)” value amounted to 1.79 °C. Besides, the “Main Transition Tm” value in data set [1] (setting [6]) came to 38.82 °C. Moreover, the “Pretransition ΔH” value in data set [1] (setting [9]) is 1.57 kJ/mol. Besides, in data set [1] (setting [7]), the “Change in Main Transition ΔTm” value is −6%, the “Change in Main Transition ΔΔH” value is −11%, the “Change in Main Transition ΔΔT(1/2)” value is on record as “+12%” and the “Change in Pretransition ΔH” value is given as −13%.

As for `CC(=O)CCC(=O)O` [Levulinate], the “Effect” value in data set [1] (10 mM compound) was “a moderate decrease in Tm, and a large decrease in enthalpy”. In data set [1] (setting [4]), the “Δ Tm” value is −0.21 C, the “ΔΔ H” value is reported as −2155 cal/mole/ C and the “ΔΔ T(1/2)” value is 0.39 C.

For the compound `C[N+](C)(C)CCO.[Cl-]` [CCL, choline chloride, reference compound], in data set [1], the “Change in Main Transition ΔTm” value is reported as “+0.8%”, the “Change in Main Transition ΔΔH” value was “+15%”, the “Change in Main Transition ΔΔT(1/2)” value is on record as −3% and the “Change in Pretransition ΔH” value is recorded as “+51%”. For the same compound, in data set [1] (pH 7.4), the “Main Transition Tm” value stood at 41.70 °C, the “Main Transition ΔH” value is 40.3 kJ/mol, the “Main Transition ΔT(1/2)” value worked out at 1.55 °C and the “Pretransition ΔH” value amounted to 1.58 kJ/mol. Besides, the EC50 in data set [3] was 34 mM.

Consider “2-hydroxyethyl(trimethyl)azanium bis(2-ethylhexyl)phosphate [CBEH]”, for which, in data set [1] (setting [5]), the “Main Transition ΔH” value was 0.322 kJ/mol and the “Main Transition ΔT(1/2)” value stood at 2.95 °C. In data set [1] (setting [6]), the “Main Transition Tm” value was found to be 42.49 °C. For the same compound, the “Pretransition ΔH” value in data set [1] (setting [9]) worked out at 0.276 kJ/mol. Further, in data set [1] (setting [7]), the “Change in Main Transition ΔTm” value was “+2.5%”, the “Change in Main Transition ΔΔH” value is −99%, the “Change in Main Transition ΔΔT(1/2)” value is given as “+16%” and the “Change in Pretransition ΔH” value was −82%. For the same compound, in data set [1] (setting [10]), the Main transition temperature was ~41 °C, the Pretransition temperature was ~33 °C, the “Reduction in main transition enthalpy compared to DPPC in HEPES alone” value came to 99% and the “Reduction in pretransition enthalpy compared to DPPC in HEPES alone” value turned out to be 82%. In addition, in data set [1] (setting [10]), the “Third prominent peak (subtransition) temperature” value was 27 °C. In addition, the “New peak Tm” value in data set [1] (DPPC-CBEH dispersions run starting at 10° C., first heating scan) stood at 21 °C. In data set [3] (setting [8]), the EC50 is < 0.3 mM.

With choline formate, in data set [1], the “Effect” value was “a moderate increase in Tm and a moderate decrease in enthalpy”; the “Δ Tm” value was “+0.31 C”. Moreover, in data set [1] (setting [4]), the “ΔΔ H” value is recorded as −733 cal/mole/ C and the “ΔΔ T(1/2)” value is recorded as −0.02 C.

`C[N+](C)(C)CCO.O=P([O-])(O)O` [CDHP, 2-hydroxyethyl(trimethyl)azanium dihydrogen phosphate]: the “Effect” value in data set [1] (10 mM compound) is given as “no statistically significant effect”. Also, in data set [1] (setting [5]), the “Main Transition ΔH” value turned out to be 33.26 kJ/mol and the “Main Transition ΔT(1/2)” value is 1.33 °C. Further, the “Main Transition Tm” value in data set [1] (setting [6]) amounted to 41.69 °C. In data set [1] (setting [9]), the “Pretransition ΔH” value was determined as 1.04 kJ/mol. In addition, in data set [1] (setting [7]), the “Change in Main Transition ΔTm” value is “+0.7%”, the “Change in Main Transition ΔΔH” value is “+3%”, the “Change in Main Transition ΔΔT(1/2)” value was −6% and the “Change in Pretransition ΔH” value is on record as −54%. Further, in data set [1] (setting [4]), the “Δ Tm” value was “+0.52 C”, the “ΔΔ H” value was −76 cal/mole/ C and the “ΔΔ T(1/2)” value is 0.131 C. In data set [2], the “Log Pow” value is given as −3.15. Besides, in data set [3] (setting [8]), the EC50 was 20 mM. Moreover, in data set [3], the “Log EC50” value is listed as 4.31 uM.

With `CNCCC=C1c2ccccc2CCc2ccccc21` [Nortriptyline hydrochloride, nortriptyline hydrochloride, reference compound], the “Effect” value in data set [1] (10 mM compound) is “shifted to lower temperatures, with notable main peak broadening”. Further, in data set [1] (setting [5]), the “Main Transition ΔH” value amounted to 33.8 kJ/mol and the “Main Transition ΔT(1/2)” value is 1.41 °C. Besides, the “Main Transition Tm” value in data set [1] (setting [6]) was 30.66 °C. Further, in data set [1] (setting [7]), the “Change in Main Transition ΔTm” value was −26%, the “Change in Main Transition ΔΔH” value is “+8%”, the “Change in Main Transition ΔΔT(1/2)” value is reported as “+6%” and the “Change in Pretransition ΔH” value is given as −100%.

Take `[Cl-].[Na+]` [NaCl, sodium chloride, reference compound]: in data set [1], the “Change in Main Transition ΔTm” value is “+0.8%”, the “Change in Main Transition ΔΔH” value is reported as “+17%”, the “Change in Main Transition ΔΔT(1/2)” value is recorded as −4% and the “Change in Pretransition ΔH” value is “+103%”. For the same compound, in data set [1] (pH 7.4), the “Main Transition Tm” value turned out to be 41.72 °C, the “Main Transition ΔH” value came to 41.1 kJ/mol, the “Main Transition ΔT(1/2)” value is 1.53 °C and the “Pretransition ΔH” value was 2.13 kJ/mol. Further, in data set [3], the EC50 is 63 mM and 60 mM.

Consider choline lactate, for which the “Effect” value in data set [1] (10 mM compound) was “a moderate increase in Tm and a moderate decrease in enthalpy”. Moreover, in data set [1] (setting [4]), the “Δ Tm” value is given as “+0.37 C”, the “ΔΔ H” value was −480 cal/mole/ C and the “ΔΔ T(1/2)” value is on record as −0.06 C. The “Log Pow” value in data set [2] is on record as −1.73.

In the case of “2-hydroxyethyl(trimethyl)azanium dibutyl phosphate [CDBP]”, in data set [1] (10 mM compound), the “Effect” value is recorded as “no statistically significant effect”. In data set [1] (setting [5]), the “Main Transition ΔH” value turned out to be 32.76 kJ/mol and the “Main Transition ΔT(1/2)” value is 1.50 °C. In addition, the “Main Transition Tm” value in data set [1] (setting [6]) is 41.05 °C. Also, in data set [1] (setting [9]), the “Pretransition ΔH” value was 1.84 kJ/mol. Also, in data set [1] (setting [7]), the “Change in Main Transition ΔTm” value is given as −0.5%, the “Change in Main Transition ΔΔH” value was “+2%”, the “Change in Main Transition ΔΔT(1/2)” value is on record as −6% and the “Change in Pretransition ΔH” value is reported as −20%. Also, the EC50 in data set [3] (setting [8]) was 9 mM and 9.1 mM.
